Data: patent US12466846B2, “Siloxane derivatives of amino acids having surface-active properties” (AdvanSix Resins & Chemicals LLC, priority 2022, dated 2025)

Assay: Critical micelle concentration and minimum surface tension from surface tension versus concentration in water, Wilhelmy plate method
Format: physicochemical
Conditions: for plateau value of minimum surface tension that can be reached: in water, Wilhelmy plate, 23° C.; for interfacial / surfactant activity (in words): judged from the plateau minimum surface tension and CMC in water
Description: These properties may be measured and described by various methods. One method by which surfactants may be described is by the molecule's critical micelle concentration (CMC). CMC may be defined as the concentration of a surfactant at which micelles form, and above which all additional surfactant is incorporated into micelles.
As surfactant concentration increases, surface tension decreases. Once the surface is completely overlaid with surfactant molecules, micelles begin to form. This point represents the CMC, as well as the minimum surface tension. Further addition of surfactant will not further affect the surface tension. CMC may therefore be measured by observing the change in surface tension as a function of surfactant concentration. One such method for measuring this value is the Wilhemy plate method. A Wilhelmy plate is usually a thin iridium-platinum plate attached to a balance by a wire and placed perpendicularly to the air-liquid interface. The balance is used to measure the force exerted on the plate by wetting. This value is then used to calculate the surface tension (γ) according to Equation 1: γ=F/l cos θ: Equation 1 wherein I is equal to the wetted perimeter (2w+2d, in which w and d are the plate thickness and width, respectively) and cos θ, the contact angle between the liquid and the plate, is assumed to be […] in the absence of an extant literature value.
Nuclear magnetic resonance (NMR) spectroscopy was performed on a Bruker 500 MHz spectrometer. The critical micelle concentration (CMC) was determined by the Wilhelmy plate method at 23° C. with a tensiometer (DCAT 11, DataPhysics Instruments GmbH) equipped with a Pt—Ir plate. Dynamic surface tension was determined with a bubble pressure tensiometer (Krüss BP100, Krüss GmbH), at 23° C. Contact angle was determined with the optical contact angle goniometer (OCA 15 Pro, DataPhysics GmbH) equipped with a digital camera.

Compound | plateau value of minimum surface tension that can be reached | interfacial / surfactant activity (in words)
C=CC[N+](C)(C)CCCCCC(=O)NCCC[Si](O[Si](C)(C)C)(O[Si](C)(C)C)O[Si](C)(C)C [Surfactant 3, N-allyl-6-((3-(1,1,1,5,5,5-hexamethyl-3-((trimethylsilyl)oxy)trisiloxan-3-yl)propyl)amino)-N,N-dimethyl-6-oxohexan-1-aminium iodide] | about 20.67 mN/m | outstanding interfacial activity
C[N+](C)(CCCCCC(=O)NCCC[Si](O[Si](C)(C)C)(O[Si](C)(C)C)O[Si](C)(C)C)Cc1ccccc1 [Surfactant 1, N-benzyl-6-((3-(1,1,1,5,5,5-hexamethyl-3-((trimethylsilyl)oxy)trisiloxan-3-yl)propyl)amino)-N,N-dimethyl-6-oxohexan-1-aminium bromide] | around 20.67 mN/m | outstanding interfacial activity
C#CC[N+](C)(C)CCCCCC(=O)NCCC[Si](O[Si](C)(C)C)(O[Si](C)(C)C)O[Si](C)(C)C [Surfactant 4, 6-((3-(1,1,1,5,5,5-hexamethyl-3-((trimethylsilyl)oxy)trisiloxan-3-yl)propyl)amino)-N,N-dimethyl-6-oxo-N-(prop-2-yn-1-yl)hexan-1-aminium bromide] | about 20.54 mN/m | outstanding interfacial activity
C[N+](C)(CCCO)CCCCCC(=O)NCCC[Si](O[Si](C)(C)C)(O[Si](C)(C)C)O[Si](C)(C)C [Surfactant 7, 6-((3-(1,1,1,5,5,5-hexamethyl-3-((trimethylsilyl)oxy)trisiloxan-3-yl)propyl)amino)-N-(3-hydroxypropyl)-N,N-dimethyl-6-oxohexan-1-aminium iodide] | about 20.61 mN/m | outstanding interfacial activity
C[N+](C)(CCO)CCCCCC(=O)NCCC[Si](O[Si](C)(C)C)(O[Si](C)(C)C)O[Si](C)(C)C [Surfactant 8, 6-((3-(1,1,1,5,5,5-hexamethyl-3-((trimethylsilyl)oxy)trisiloxan-3-yl)propyl)amino)-N-(2-hydroxyethyl)-N,N-dimethyl-6-oxohexan-1-aminium iodide] | about 20.41 mN/m | outstanding interfacial activity
C[N+](C)(CCCCCC(=O)O)CCCCCC(=O)NCCC[Si](O[Si](C)(C)C)(O[Si](C)(C)C)O[Si](C)(C)C [Surfactant 9a, N-(5-carboxypentyl)-6-((3-(1,1,1,5,5,5-hexamethyl-3-((trimethylsilyl)oxy)trisiloxan-3-yl)propyl)amino)-N,N-dimethyl-6-oxohexan-1-aminium bromide] | about 20.52 mN/m | –
COCCOCC[N+](C)(C)CCCCCC(=O)NCCC[Si](O[Si](C)(C)C)(O[Si](C)(C)C)O[Si](C)(C)C [Surfactant 5, 6-((3-(1,1,1,5,5,5-hexamethyl-3-((trimethylsilyl)oxy)trisiloxan-3-yl)propyl)amino)-N-(2-(2-methoxyethoxy)ethyl)-N,N-dimethyl-6-oxohexan-1-aminium bromide] | about 20.40 mN/m | outstanding interfacial activity
C[N+](C)(CCCCCC(=O)NCCC[Si](O[Si](C)(C)C)(O[Si](C)(C)C)O[Si](C)(C)C)CC(=O)O [Surfactant 9b, N-(carboxymethyl)-6-((3-(1,1,1,5,5,5-hexamethyl-3-((trimethylsilyl)oxy)trisiloxan-3-yl)propyl)amino)-N,N-dimethyl-6-oxohexan-1-aminium bromide] | about 29.16 mN/m | excellent activity
C[N+](C)(CCCCCC(=O)NCCC[Si](O[Si](C)(C)C)(O[Si](C)(C)C)O[Si](C)(C)C)CCC[N+](C)(C)CCCCCC(=O)NCCC[Si](O[Si](C)(C)C)(O[Si](C)(C)C)O[Si](C)(C)C [Surfactant 10, N^1,N^3-bis(6-((3-(1,1,1,5,5,5-hexamethyl-3-((trimethylsilyl)oxy)trisiloxan-3-yl)propyl)amino)-6-oxohexyl)-N^1,N^1,N^3,N^3-tetramethylpropane-1,3-diaminium dibromide] | about 22.12 mN/m | interfacial activity
CCOP(=O)(CCC[N+](C)(C)CCCCCC(=O)NCCC[Si](O[Si](C)(C)C)(O[Si](C)(C)C)O[Si](C)(C)C)OCC [Surfactant 6, N-(3-(diethoxyphosphoryl)propyl)-6-((3-(1,1,1,5,5,5-hexamethyl-3-((trimethylsilyl)oxy)trisiloxan-3-yl)propyl)amino)-N,N-dimethyl-6-oxohexan-1-aminium bromide] | about 20.48 mN/m | outstanding interfacial activity
CCOC(=O)C[N+](C)(C)CCCCCC(=O)NCCC[Si](O[Si](C)(C)C)(O[Si](C)(C)C)O[Si](C)(C)C [Surfactant 2, N-(2-ethoxy-2-oxoethyl)-6-((3-(1,1,1,5,5,5-hexamethyl-3-((trimethylsilyl)oxy)trisiloxan-3-yl)propyl)amino)-N,N-dimethyl-6-oxohexan-1-aminium bromide] | around 20.36 mN/m | outstanding interfacial activity
